# Biological target: T1, Cloned Human Serotonin Receptor, Subtype 7 (h5HT7) (Homo sapiens, UniProt P34969)
# T1 construct: purchased PerkinElmer 6120512; host or cells: CHO cells
# Assay: Radioligand binding assay, [125I]LSD, Flashplate
# Conditions: h5HT7 expressed in CHO cells; radioligand [125I]LSD 0.82 nM; 240 min at room temperature; read-out: 5-HT7 Ki
# Method: Radioligand binding assays were performed using the Cloned Human Serotonin Receptor, Subtype 7 (h5HT7), expressed in CHO cells, coated on Flashplate (Basic FlashPlate Cat.: SMP200) from PerkinElmer (Cat.: 6120512). The protocol assay was essentially the recommended protocol in the Technical Data Sheet by PerkinEmer Life and Analytical Sciences. The Mass membrane protein/well was typically […] and the Receptor/well was about 9-10 fmoles. The Flashplate were let equilibrate at room temperature for one hour before the addition of the components of the assay mixture. The binding buffer was: 50 mM Tris-HCl, pH 7.4, containing 10 mM MgCl2, 0.5 mM EDTA and 0.5% BSA. The radioligand was [^125l]LSD at a final concentration of 0.82 nM. Nonspecific binding was determined with 50 µM of Clozapine. The assay volume was […]. […] The radioactivity were quantified by liquid scintillation spectrophotometry (Wallac 1450 Microbeta Trilux) with a count delay of 4 minutes prior to counting and a counting time of 30 seconds per well. Competition binding data were analyzed by using the LIGAND program (Munson and Rodbard, LIGAND: A versatile, computerized approach for characterization of ligandbinding systems. Anal. Biochem. 107: 220-239, 1980) and assays were performed in triplicate determinations for each point.
# T1 sequence (P34969 whole entry): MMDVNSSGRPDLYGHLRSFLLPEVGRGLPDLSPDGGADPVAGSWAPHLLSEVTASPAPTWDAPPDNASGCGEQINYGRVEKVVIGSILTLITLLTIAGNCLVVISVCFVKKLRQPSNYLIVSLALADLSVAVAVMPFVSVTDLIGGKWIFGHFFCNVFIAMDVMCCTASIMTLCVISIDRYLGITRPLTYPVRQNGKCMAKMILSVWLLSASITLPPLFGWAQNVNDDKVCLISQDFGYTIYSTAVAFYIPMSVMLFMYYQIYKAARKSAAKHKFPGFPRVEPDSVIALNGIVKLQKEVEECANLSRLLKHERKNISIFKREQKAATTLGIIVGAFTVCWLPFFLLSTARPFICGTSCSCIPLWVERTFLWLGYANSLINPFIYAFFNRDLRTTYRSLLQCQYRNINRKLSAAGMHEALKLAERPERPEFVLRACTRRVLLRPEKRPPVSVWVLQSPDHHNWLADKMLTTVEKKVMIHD
row,Ki [µM],Compound
1,0.425,"Cc1nn(C)c(-c2ccc3c(c2)C(N(C)C)CC3)c1C (centres unmarked) [Example 3, N,N-dimethyl-6-(1,3,4-trimethyl-1H-pyrazol-5-yl)-2,3-dihydro-1H-inden-1-amine]"
2,0.36,"Cc1nn(C(C)C)c(-c2ccc3c(c2)C(N(C)C)CC3)c1C (centres unmarked) [Example 9, 6-(1-lsopropyl-3,4-dimethyl-1H-pyrazol-5-yl)-N,N-dimethyl-2,3-dihydro-1H-inden-1-amine]"

# From patent US20120264799A1, “INDANE-AMINE DERIVATIVES, THEIR PREPARATION AND USE AS MEDICAMENTS” (LABORATORIOS DEL DR. ESTEVE ,S.A., priority 2009, published 2012)
